Source: patent publication US20240166596A1, “SULFAMOYL BENZENE DERIVATIVES AND USES THEREOF” (AphioTx Inc., priority 2021, published 2024)
“Also recorded” adds a separate entry of the source.

Assays:
[1] = system: Long Evans rats; experiment: Morphine self-administration, extinction and cue-induced reinstatement (opioid seeking); assay type: in vivo
Method: Adult (8 to 10 weeks old at the beginning of the experiments) wild-type male and female Long Evans rats (250-350g) were used. Animals were group housed prior to jugular vein catheter implant surgery with two to three animals per cage on a 12/12 hours dark/light cycle (lights on at 7:00 AM). Rats were acclimated to the animal facility holding rooms for at least 7 days before any manipulation. After catheter implantation, animals were single housed to prevent damage to the harnesses. All experiments were performed during the light cycle. Rats received food and water ad libitum until 2 days prior to starting the behavioral studies, when food restriction (16 g of rat chow per day) started and continued until the end of the experiments.
All surgeries were performed under isoflurane (2.5/3 MAC) anesthesia using sterile aseptic techniques. For intravenous (IV) self-administration (SA), animals were implanted with sterile catheters in the right jugular vein and connected to a harness placed over the torso. The harness allowed for minimal stress while connecting and disconnecting the animal from infusion lines. The catheter was kept patent by daily infusions of gentamicin mixture (1.33 mg/ml).
Equipment: Rat self-administration was conducted using operant-conditioning chambers (Med Associates) equipped with two retractable levers with a food magazine connected to a food pellet dispenser between them. Two cue lights were positioned above the levers, and one house light was positioned on the top left-hand wall. During self-administration sessions both levers (correct and incorrect lever) were extended out with white cue light turned on only above the correct lever. […]
All experiments were performed at least twice, including each treatment condition to prevent an unspecific day/condition effect. […] All data are expressed as mean±SEM. […] After assessing the normality of sample data using Shapiro-Wilk test, statistical significance was determined by two-way repeated-measures ANOVA followed by two-tailed Sidak post hoc test. Data was analyzed using GraphPad Prism 8.1.0.

[2] = system: C57BL/6 mice; experiment: Conditioned place aversion (CPA) after naloxone-precipitated withdrawal; assay type: in vivo; conditions: for CPA: 0.1 mg/kg i.p. as printed
Description: Adult male C57BL/6 mice (7-14 weeks old) were used for conditioned place aversion experiments (CPA). Animals were group housed under reverse light-dark cycle with ad libitum access to food and water and were randomly allocated to different test groups. All procedures were approved by the University of Calgary and Washington University Animal Care Committees and are in accordance with the guidelines of the Canadian Council on Animal Care and the US National Institutes of Health Guide for the Care of Use of Laboratory Animals.
Place conditioning was performed in a custom-built clear plexiglass apparatus (28×28×19 cm) divided into two conditioning chambers distinct in tactile and visual cues. All locomotor behaviours were recorded using monochrome GigE cameras and quantified offline using EthoVision XT 11 software (Noldus). The CPA score was calculated by subtracting time spent in the conditioned chamber during baseline (pre-test) from time spent in the same chamber postconditioning. Mice were placed in a two-chamber conditioning apparatus and allowed free access to both chambers for 15 min to assess baseline preference. Mice were treated with escalating doses of morphine, control animals received equivalent volumes of 0.9% sterile saline. Two hours after the final morphine or saline injection on day 5, mice were injected with naloxone and confined to one side of the conditioning apparatus for 30 min. The conditioned place aversion (CPA) test occurred 1 and 7 days post-conditioning, where mice were allowed free access to the conditioning apparatus for 15 min. […]
Unpaired t tests were applied to compare differences between two groups, one-way ANOVA with Bonferroni post hoc tests were applied to compare differences between three or more groups. […] All data are expressed as mean±SEM. […] After assessing the normality of sample data using Shapiro-Wilk test, statistical significance was determined by two-way repeated-measures ANOVA followed by two-tailed Sidak post hoc test. All data were presented as mean±SEM and analyzed using GraphPad Prism 9 (GraphPad Software, Inc., California).

For `CCCN(CCC)S(=O)(=O)c1ccc(C(O)(C(F)(F)F)C(F)(F)F)cc1` [Compound 1, 4-(1,1,1,3,3,3-hexafluoro-2-hydroxypropan-2-yl)-N,N-dipropylbenzenesulfonamide], the “Extinction of morphine seeking behaviour (lever pressing)” value ([1]; 0.5 mg/kg i.p. 1 hour prior to each extinction session, vs saline) was “did not show a reduction in time required for extinction; also recorded: no difference was observed”, the “Lever presses (morphine seeking) during reinstatement, all animals” value ([1]; 0.5 mg/kg i.p. during extinction, before reinstatement, or both, vs saline) was “significant reduction in the number of lever presses; also recorded: rescued” and the “Lever presses (morphine seeking) during reinstatement, female rats” value ([1]; 0.5 mg/kg i.p. during extinction, first day of reinstatement, or both, females) was “decreased the number of lever presses; also recorded: reversed”. For the same compound, the CPA ([2]; 1 day after naloxone-precipitated withdrawal) was “significantly less CPA”, the CPA ([2]; 1 day and 7 days after naloxone-precipitated withdrawal) was “significantly less CPA” and the “CPA score (aversion to the naloxone-paired chamber)” value ([2]; 0.5 mg/kg i.p., morphine-dependent mice, vs vehicle) was “significant reduction in aversion”.
